From patent US20250368649A1, “TETRAHYDROPYRIDOPYRIMIDINE PAN-KRAS INHIBITORS” (Mirati Therapeutics, Inc., priority 2022, published 2025)

What was measured:
[1] = molecular target: KRas WT (Homo sapiens, UniProt P01116); test: KRas binding assay (TR-FRET displacement), KRas WT; conditions: TR-FRET displacement
[2] = molecular target: KRas G12A (Homo sapiens, UniProt P01116, G12A); format: binding; conditions: TR-FRET displacement, read-out: Binding to KRas (IC50 nM) G12A
[3] = molecular target: KRas G12C (Homo sapiens, UniProt P01116, G12C); format: binding; conditions: TR-FRET displacement, read-out: Binding to KRas (IC50 nM) G12C
Chain of KRas G12C (P01116 1-169 isoform P01116-2 G12C): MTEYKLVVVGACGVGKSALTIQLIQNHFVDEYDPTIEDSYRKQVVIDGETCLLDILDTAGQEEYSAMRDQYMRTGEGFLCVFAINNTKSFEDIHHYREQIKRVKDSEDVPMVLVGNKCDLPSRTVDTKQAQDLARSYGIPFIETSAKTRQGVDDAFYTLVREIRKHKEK

[4] = molecular target: KRas G12S (Homo sapiens, UniProt P01116, G12S); format: binding; conditions: TR-FRET displacement, read-out: Binding to KRas (IC50 nM) G12S
Chain of KRas G12S (P01116 1-169 isoform P01116-2 G12S): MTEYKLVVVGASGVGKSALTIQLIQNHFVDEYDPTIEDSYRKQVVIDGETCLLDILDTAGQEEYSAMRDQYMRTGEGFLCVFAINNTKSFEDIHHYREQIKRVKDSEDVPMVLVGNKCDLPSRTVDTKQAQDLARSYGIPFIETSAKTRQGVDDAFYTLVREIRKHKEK

[5] = molecular target: KRas G13D (Homo sapiens, UniProt P01116, G13D); format: binding; conditions: TR-FRET displacement, read-out: Binding to KRas (IC50 nM) G13D
Chain of KRas G13D (P01116 1-169 isoform P01116-2 G13D): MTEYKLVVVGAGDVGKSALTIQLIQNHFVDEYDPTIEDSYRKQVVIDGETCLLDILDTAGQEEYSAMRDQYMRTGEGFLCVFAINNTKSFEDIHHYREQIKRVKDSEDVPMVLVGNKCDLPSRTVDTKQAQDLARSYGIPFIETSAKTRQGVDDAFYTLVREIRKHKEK

[6] = molecular target: KRas Q61H (Homo sapiens, UniProt P01116, Q61H); test: KRas binding assay (TR-FRET displacement), KRas Q61H; conditions: TR-FRET displacement
Chain of KRas Q61H (P01116 1-169 isoform P01116-2 Q61H): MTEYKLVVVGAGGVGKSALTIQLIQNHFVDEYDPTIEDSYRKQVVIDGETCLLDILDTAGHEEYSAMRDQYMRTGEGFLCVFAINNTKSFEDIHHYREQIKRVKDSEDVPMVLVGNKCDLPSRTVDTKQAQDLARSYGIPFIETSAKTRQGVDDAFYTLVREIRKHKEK

[7] = molecular target: KRas G12D (Homo sapiens, UniProt P01116, G12D); test: biochemical; conditions: Binding to KRas (IC50 nM) G12D, TR-FRET displacement, KRas G12D
Chain of KRas G12D (P01116 1-169 isoform P01116-2 G12D): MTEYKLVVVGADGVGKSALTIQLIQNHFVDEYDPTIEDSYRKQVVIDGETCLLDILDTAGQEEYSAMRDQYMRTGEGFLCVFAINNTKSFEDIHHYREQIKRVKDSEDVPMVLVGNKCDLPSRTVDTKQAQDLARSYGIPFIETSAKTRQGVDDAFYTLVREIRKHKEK

[8] = molecular target: KRas G12V (Homo sapiens, UniProt P01116, G12V); test: biochemical; conditions: Binding to KRas (IC50 nM) G12V, TR-FRET displacement, KRas G12V
Chain of KRas G12V (P01116 1-169 isoform P01116-2 G12V): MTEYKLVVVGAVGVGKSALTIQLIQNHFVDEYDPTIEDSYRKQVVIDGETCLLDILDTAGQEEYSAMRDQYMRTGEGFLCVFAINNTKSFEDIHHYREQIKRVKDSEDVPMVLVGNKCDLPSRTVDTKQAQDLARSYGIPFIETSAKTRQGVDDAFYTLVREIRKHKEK

Chain of KRas G12A (P01116 1-169 isoform P01116-2 G12A): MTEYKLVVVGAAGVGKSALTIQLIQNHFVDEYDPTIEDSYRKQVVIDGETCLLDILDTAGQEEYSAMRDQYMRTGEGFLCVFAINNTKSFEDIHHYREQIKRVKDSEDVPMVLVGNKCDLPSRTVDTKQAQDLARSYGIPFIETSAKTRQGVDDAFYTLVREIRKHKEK
Chain of KRas WT (P01116 1-169 isoform P01116-2): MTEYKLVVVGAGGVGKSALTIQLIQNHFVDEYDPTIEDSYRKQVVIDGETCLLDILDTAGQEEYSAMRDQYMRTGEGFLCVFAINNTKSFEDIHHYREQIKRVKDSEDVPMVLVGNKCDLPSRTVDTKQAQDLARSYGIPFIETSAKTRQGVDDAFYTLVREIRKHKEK

SMILES	IC50 [1]	IC50 [2]	IC50 [3]	IC50 [4]	IC50 [5]	IC50 [6]	IC50 [7]	IC50 [8]
CCc1cccc2cccc(N3CCc4c(nc(OCC5(CN(C)C)CC5)nc4N(C)CC4CC(F)C4)C3)c12 (stereo not drawn) [Example 560, 2-((1-((dimethylamino)methyl)cyclopropyl)methoxy)-7-(8-ethylnaphthalen-1-yl)-N-((3-fluorocyclobutyl)methyl)-N-methyl-5,6,7,8-tetrahydropyrido[3,4-d]pyrimidin-4-amine]	6020 nM	6870 nM	5460 nM	7920 nM	18400 nM	17600 nM	24800 nM	3730 nM
CCc1cccc2cccc(N3CCc4c(nc(OCC5(CN(C)C)CC5)nc4NCC4CN(c5ncccn5)C4)C3)c12 [Example 561, 2-((1-((dimethylamino)methyl)cyclopropyl)methoxy)-7-(8-ethylnaphthalen-1-yl)-N-((1-(pyrimidin-2-yl)azetidin-3-yl)methyl)-5,6,7,8-tetrahydropyrido[3,4-d]pyrimidin-4-amine]	1280 nM	994 nM	557 nM	536 nM	2190 nM	1740 nM	25700 nM	6110 nM
CCc1cccc2cccc(N3CCc4c(nc(OCC5(CN(C)C)CC5)nc4N4CCOC(c5nnc(C(C)C)o5)C4)C3)c12 (stereo not drawn) [Example 562, 1-(1-(((7-(8-ethylnaphthalen-1-yl)-4-(2-(5-isopropyl-1,3,4-oxadiazol-2-yl)morpholino)-5,6,7,8-tetrahydropyrido[3,4-d]pyrimidin-2-yl)oxy)methyl)cyclopropyl)-N,N-dimethylmethanamine]	10700 nM	7970 nM	4270 nM	6600 nM	21700 nM	14000 nM	25900 nM	6370 nM
CCc1cccc2cccc(N3CCc4c(nc(OCC5(CN(C)C)CC5)nc4NCc4nnc5c(Cl)cccn45)C3)c12 [Example 563, N-((8-chloro-[1,2,4]triazolo[4,3-a]pyridin-3-yl)methyl)-2-((1-((dimethylamino)methyl)cyclopropyl)methoxy)-7-(8-ethylnaphthalen-1-yl)-5,6,7,8-tetrahydropyrido[3,4-d]pyrimidin-4-amine]	776 nM	1370 nM	697 nM	320 nM	1040 nM	231 nM	30500 nM	6510 nM
CCc1cccc2cccc(N3CCc4c(nc(OCC5(CN(C)C)CC5)nc4N4CCN(c5nc(O)cs5)CC4)C3)c12 [Example 564, 2-(4-(2-((1-((dimethylamino)methyl)cyclopropyl)methoxy)-7-(8-ethylnaphthalen-1-yl)-5,6,7,8-tetrahydropyrido[3,4-d]pyrimidin-4-yl)piperazin-1-yl)thiazol-4-ol]	6920 nM	11600 nM	8580 nM	14200 nM	7400 nM	4380 nM	29500 nM	3710 nM
CCc1cccc2cccc(N3CCc4c(nc(OCC5(CN(C)C)CC5)nc4NCCc4cc(Br)no4)C3)c12 [Example 565, N-(2-(3-bromoisoxazol-5-yl)ethyl)-2-((1-((dimethylamino)methyl)cyclopropyl)methoxy)-7-(8-ethylnaphthalen-1-yl)-5,6,7,8-tetrahydropyrido[3,4-d]pyrimidin-4-amine]	13000 nM	12200 nM	8620 nM	12900 nM	18900 nM	34400 nM	34300 nM	6620 nM
CCc1cccc2cccc(N3CCc4c(nc(OCC5(CN(C)C)CC5)nc4N4CCOC(c5noc(C6CC6)n5)C4)C3)c12 (stereo not drawn) [Example 566, 1-(1-(((4-(2-(5-cyclopropyl-1,2,4-oxadiazol-3-yl)morpholino)-7-(8-ethylnaphthalen-1-yl)-5,6,7,8-tetrahydropyrido[3,4-d]pyrimidin-2-yl)oxy)methyl)cyclopropyl)-N,N-dimethylmethanamine]	8780 nM	7990 nM	3760 nM	8690 nM	15300 nM	15200 nM	35600 nM	5700 nM
CCc1cccc2cccc(N3CCc4c(nc(OCC5(CN(C)C)CC5)nc4NCc4cc(C5CC5)nn4C)C3)c12 [Example 567, N-((3-cyclopropyl-1-methyl-1H-pyrazol-5-yl)methyl)-2-((1-((dimethylamino)methyl)cyclopropyl)methoxy)-7-(8-ethylnaphthalen-1-yl)-5,6,7,8-tetrahydropyrido[3,4-d]pyrimidin-4-amine]	11600 nM	6050 nM	3470 nM	4330 nM	11800 nM	9550 nM	37600 nM	5760 nM
CCc1cccc2cccc(N3CCc4c(nc(OCC5(CN(C)C)CC5)nc4NCCc4ncc(F)cc4F)C3)c12 [Example 568, N-(2-(3,5-difluoropyridin-2-yl)ethyl)-2-((1-((dimethylamino)methyl)cyclopropyl)methoxy)-7-(8-ethylnaphthalen-1-yl)-5,6,7,8-tetrahydropyrido[3,4-d]pyrimidin-4-amine]	15700 nM	13400 nM	7900 nM	13600 nM	19800 nM	15300 nM	39100 nM	5210 nM
CCc1cccc2cccc(N3CCc4c(nc(OCC5(CN(C)C)CC5)nc4NCC4(c5ccccc5)CCC(=O)N4)C3)c12 (stereo not drawn) [Example 569, 5-(((2-((1-((dimethylamino)methyl)cyclopropyl)methoxy)-7-(8-ethylnaphthalen-1-yl)-5,6,7,8-tetrahydropyrido[3,4-d]pyrimidin-4-yl)amino)methyl)-5-phenylpyrrolidin-2-one]	12200 nM	10800 nM	7220 nM	8590 nM	16900 nM	10500 nM	41500 nM	4610 nM
CCc1cccc2cccc(N3CCc4c(nc(OCC5(CN(C)C)CC5)nc4NCCc4nnc5n4CCC5)C3)c12 [Example 570, N-(2-(6,7-dihydro-5H-pyrrolo[2,1-c][1,2,4]triazol-3-yl)ethyl)-2-((1-((dimethylamino)methyl)cyclopropyl)methoxy)-7-(8-ethylnaphthalen-1-yl)-5,6,7,8-tetrahydropyrido[3,4-d]pyrimidin-4-amine]	99 nM	134 nM	74 nM	58 nM	72 nM	37 nM	39000 nM	13700 nM
CCc1cccc2cccc(N3CCc4c(nc(OCC5(CN(C)C)CC5)nc4NCc4cnnn4C)C3)c12 [Example 662, 2-((1-((dimethylamino)methyl)cyclopropyl)methoxy)-7-(8-ethylnaphthalen-1-yl)-N-((1-methyl-1H-1,2,3-triazol-5-yl)methyl)-5,6,7,8-tetrahydropyrido[3,4-d]pyrimidin-4-amine]	10300 nM	9520 nM	5470 nM	10100 nM	13600 nM	10500 nM	14400 nM	4040 nM
CCc1cccc2cccc(N3CCc4c(nc(OCC5(CN(C)C)CC5)nc4N4CCn5nncc5C4)C3)c12 [Example 665, 1-(1-(((4-(6,7-dihydro-[1,2,3]triazolo[1,5-a]pyrazin-5(4H)-yl)-7-(8-ethylnaphthalen-1-yl)-5,6,7,8-tetrahydropyrido[3,4-d]pyrimidin-2-yl)oxy)methyl)cyclopropyl)-N,N-dimethylmethanamine]	87600 nM	83100 nM	37800 nM	62800 nM	> 100000 nM	> 100000 nM	6840 nM	10800 nM
CCc1cccc2cccc(N3CCc4c(nc(OCC5(CN(C)C)CC5)nc4NCCc4sc(N)nc4C)C3)c12 [Example 670, 5-(2-((2-((1-((dimethylamino)methyl)cyclopropyl)methoxy)-7-(8-ethylnaphthalen-1-yl)-5,6,7,8-tetrahydropyrido[3,4-d]pyrimidin-4-yl)amino)ethyl)-4-methylthiazol-2-amine]	1960 nM	1880 nM	602 nM	1980 nM	1970 nM	2030 nM	9750 nM	1540 nM
CCc1cccc2cccc(N3CCc4c(nc(OCC5(CN(C)C)CC5)nc4NCCc4nnc(N)o4)C3)c12 [Example 671, 5-(2-((2-((1-((dimethylamino)methyl)cyclopropyl)methoxy)-7-(8-ethylnaphthalen-1-yl)-5,6,7,8-tetrahydropyrido[3,4-d]pyrimidin-4-yl)amino)ethyl)-1,3,4-oxadiazol-2-amine]	23900 nM	10200 nM	5240 nM	16500 nM	33000 nM	30200 nM	11800 nM	1980 nM
